According to ChEMBL document CHEMBL1155915, “Anticonvulsant activity of some xanthone derivatives” (Bioorg Med Chem, 2008):
Active and inactive are the calls of the source.

Key:
Mus musculus [1] = experiment: Anticonvulsant activity against maximal electroshock-induced seizures in mouse at 300 mg/kg, ip after 0.5 hrs; type: functional, organism-based; design: dose 300 mg/kg
Rattus norvegicus [2] = experiment: Anticonvulsant activity against maximal electroshock-induced seizures in rat at 30 mg/kg, po after 2 hrs; type: functional, organism-based; design: dose 30 mg/kg
Rattus norvegicus [3] = experiment: Anticonvulsant activity against maximal electroshock-induced seizures in rat at 30 mg/kg, po after 0.5 hrs; type: functional, organism-based; design: dose 30 mg/kg
Mus musculus [4] = experiment: Anticonvulsant activity against maximal electroshock-induced seizures in mouse at 30 mg/kg, ip after 0.5 hrs; type: functional, organism-based; design: dose 30 mg/kg
Mus musculus [5] = experiment: Anticonvulsant activity against maximal electroshock-induced seizures in mouse at 300 mg/kg, ip after 4 hrs; type: functional, organism-based; design: dose 300 mg/kg
Mus musculus [6] = experiment: Anticonvulsant activity against scMet-induced seizures in mouse at 30 mg/kg, ip after 4 hrs; type: functional, organism-based; design: dose 30 mg/kg
Mus musculus [7] = experiment: Anticonvulsant activity against scMet-induced seizures in mouse at 30 mg/kg, ip after 0.5 hrs; type: functional, organism-based; design: dose 30 mg/kg
Mus musculus [8] = experiment: Anticonvulsant activity against maximal electroshock-induced seizures in mouse at 30 mg/kg, ip after 4 hrs; type: functional, organism-based; design: dose 30 mg/kg
Rattus norvegicus [9] = experiment: Neurotoxicity in rat at 30 mg/kg, po after 4 hrs by rotarod test; type: toxicity, organism-based; design: dose 30 mg/kg, route oral; settings: in vivo
Rattus norvegicus [10] = experiment: Neurotoxicity in rat at 30 mg/kg, po after 0.25 hrs by rotarod test; type: toxicity, organism-based; design: dose 30 mg/kg, route oral; settings: in vivo
Mus musculus [11] = experiment: Anticonvulsant activity against maximal electroshock-induced seizures in mouse at 100 mg/kg, ip after 4 hrs; type: functional, organism-based; design: dose 100 mg/kg
Mus musculus [12] = experiment: Anticonvulsant activity against maximal electroshock-induced seizures in mouse at 100 mg/kg, ip after 0.5 hrs; type: functional, organism-based; design: dose 100 mg/kg
Mus musculus [13] = experiment: Neurotoxicity in mouse at 30 mg/kg, ip after 4 hrs by rotarod test; type: toxicity, organism-based; design: dose 30 mg/kg, route intraperitoneal; settings: in vivo
Mus musculus [14] = experiment: Anticonvulsant activity against scMet-induced seizures in mouse at 300 mg/kg, ip after 4 hrs; type: functional, organism-based; design: dose 300 mg/kg
Mus musculus [15] = experiment: Neurotoxicity in mouse at 300 mg/kg, ip after 0.5 hrs by rotarod test; type: toxicity, organism-based; design: dose 300 mg/kg, route intraperitoneal; settings: in vivo
Mus musculus [16] = experiment: Neurotoxicity in mouse at 300 mg/kg, ip after 4 hrs by rotarod test; type: toxicity, organism-based; design: dose 300 mg/kg, route intraperitoneal; settings: in vivo
Rattus norvegicus [17] = experiment: Neurotoxicity in rat at 30 mg/kg, po after 0.5 hrs by rotarod test; type: toxicity, organism-based; design: dose 30 mg/kg, route oral; settings: in vivo
Rattus norvegicus [18] = experiment: Neurotoxicity in rat at 30 mg/kg, po after 2 hrs by rotarod test; type: toxicity, organism-based; design: dose 30 mg/kg, route oral; settings: in vivo
Mus musculus [19] = experiment: Anticonvulsant activity against scMet-induced seizures in mouse at 100 mg/kg, ip after 4 hrs; type: functional, organism-based; design: dose 100 mg/kg
Rattus norvegicus [20] = experiment: Anticonvulsant activity against maximal electroshock-induced seizures in rat at 30 mg/kg, po after 0.25 hrs; type: functional, organism-based; design: dose 30 mg/kg
Mus musculus [21] = experiment: Anticonvulsant activity against scMet-induced seizures in mouse at 100 mg/kg, ip after 0.5 hrs; type: functional, organism-based; design: dose 100 mg/kg
Mus musculus [22] = experiment: Neurotoxicity in mouse at 30 mg/kg, ip after 0.5 hrs by rotarod test; type: toxicity, organism-based; design: dose 30 mg/kg, route intraperitoneal; settings: in vivo
Mus musculus [23] = experiment: Anticonvulsant activity against scMet-induced seizures in mouse at 300 mg/kg, ip after 0.5 hrs; type: functional, organism-based; design: dose 300 mg/kg
Rattus norvegicus [24] = experiment: Neurotoxicity in rat at 30 mg/kg, po after 1 hr by rotarod test; type: toxicity, organism-based; design: dose 30 mg/kg, route oral; settings: in vivo
[25] = Displacement of [3H]flunitrazepam from benzodiazepine receptor in rat brain cortex by scintillation counting; type: tissue-based
Mus musculus [26] = experiment: Anticonvulsant activity against scMet-induced seizures in ip dosed mouse; type: functional
Mus musculus [27] = species on record: Mus musculus; experiment: Protective index, ratio of TD50 for mouse by rotarod test to ED50 for mouse by MES test; type: functional
Mus musculus [28] = species on record: Mus musculus; experiment: Protective index, ratio of TD50 for mouse by rotarod test to ED50 for mouse by scMET test; type: functional
Mus musculus [29] = experiment: Anticonvulsant activity against maximal electroshock-induced seizures in ip dosed mouse; type: functional

CC[C@@H](CO)NCc1ccc2oc3cc(Cl)ccc3c(=O)c2c1
inactive: Activity (Rattus norvegicus [2]) | Activity (Rattus norvegicus [3]) | Activity (Mus musculus [4]) | Activity (Mus musculus [6]) | Activity (Mus musculus [7]) | Activity (Mus musculus [8]) | Activity (Mus musculus [11]) | Activity (Mus musculus [14]) | Activity (Mus musculus [19]) | Activity (Rattus norvegicus [20]) | Activity (Mus musculus [21]) | Activity (Mus musculus [23])
Not Active: Neurotoxicity (Rattus norvegicus [9]) | Neurotoxicity (Rattus norvegicus [10]) | Neurotoxicity (Mus musculus [13]) | Neurotoxicity (Rattus norvegicus [17]) | Neurotoxicity (Rattus norvegicus [18]) | Neurotoxicity (Mus musculus [22]) | Neurotoxicity (Rattus norvegicus [24])
active: Activity (Mus musculus [1]) | Activity (Mus musculus [5]) | Activity (Mus musculus [12])
Neurotoxic: Neurotoxicity (Mus musculus [15]) | Neurotoxicity (Mus musculus [16])

CN1C(=O)CN=C(c2ccccc2)c2cc(Cl)ccc21 [DIAZEPAM]
700 nM: EC50 [25]

O=C1NC(=O)C(c2ccccc2)(c2ccccc2)N1 [PHENYTOIN]
6.6: PI (Mus musculus [27])
> 50 mg/kg: ED50 (Mus musculus [26])
<0.9: PI (Mus musculus [28])
6.48 mg/kg: ED50 (Mus musculus [29])
